This is an account of results in ChEMBL document CHEMBL3351985, “Prophylactic treatment of asthma by an ozone scavenger in a mouse model” (2015).

Active and inactive are the calls of the source. The rule behind the calls is not given here.

Assay [1] is filed under the species Mus musculus. The assay is described as follows: Antiasthmatic activity in ovalbumin-sensitized BALB/c mouse allergy model assessed as reduction in perivascular inflammatory cell infiltration compound treated at 4 g through inhalation prior to ovalbumin challenge by hematoxylin eosin staining method relative to control. The format is functional. Also on record: scale not given: the % may be the effect or the level left.

The species named for assay [2] is Mus musculus. The assay is described as follows: Antiasthmatic activity in ovalbumin-sensitized BALB/c mouse allergy model assessed as reduction in eosinophil count compound treated at 4 g through inhalation prior to ovalbumin challenge (reference value: 11 /mm3). The format is functional.
The species named for assay [3] is Mus musculus. The assay is described as follows: Antiasthmatic activity in ovalbumin-sensitized BALB/c mouse allergy model assessed as reduction in peribronchial inflammatory cell infiltration compound treated at 4 g through inhalation prior to ovalbumin challenge by hematoxylin eosin staining method relative to control. The format is functional. Also on record: scale not given: the % may be the effect or the level left.

The species named for assay [4] is Mus musculus. The assay is described as follows: Antiasthmatic activity in ovalbumin-sensitized BALB/c mouse allergy model assessed as reduction in neutrophil count compound treated at 4 g through inhalation prior to ovalbumin challenge (reference value: 43.1 /mm3). The format is functional.
The species entered for assay [5] is Mus musculus. Put plainly: Antiasthmatic activity in ovalbumin-sensitized BALB/c mouse allergy model assessed as reduction in sub-epithelial fibrosis compound treated at 4 g through inhalation prior to ovalbumin challenge by hematoxylin eosin staining method relative to control. On the set-up: scale not given: the % may be the effect or the level left. The format is functional.

The species named for assay [6] is Mus musculus. Put plainly: Antiasthmatic activity in ovalbumin-sensitized BALB/c mouse allergy model assessed as reduction in lung aldehyde level compound treated at 4 g through inhalation prior to ovalbumin challenge. The format is functional, organism-based.
For assay [7], the species on record is Mus musculus. The assay is described as follows: Antiasthmatic activity in ovalbumin-sensitized BALB/c mouse allergy model assessed as reduction in epithelial cell mucus metaplasia compound treated at 4 g through inhalation prior to ovalbumin challenge by hematoxylin eosin staining method relative to control. The format is functional.
The species named for assay [8] is Mus musculus. The assay is described as follows: Antiasthmatic activity in ovalbumin-sensitized BALB/c mouse allergy model assessed as reduction in BAL aldehyde level compound treated at 4 g through inhalation prior to ovalbumin challenge. The format is functional, organism-based.
For assay [9], the species on record is Mus musculus. Put plainly: Antiasthmatic activity in ovalbumin-sensitized BALB/c mouse allergy model assessed as reduction in spleen tissue aldehyde level compound treated at 4 g through inhalation prior to ovalbumin challenge. The format is functional, organism-based.
For assay [10], the species on record is Mus musculus. Put plainly: Antiasthmatic activity in ovalbumin-sensitized BALB/c mouse allergy model assessed as reduction in occlusion of the airway diameter by mucus compound treated at 4 g through inhalation prior to ovalbumin challenge by hematoxylin eosin staining method relative to control. The format is functional.

Consider `C=C(C)[C@H]1CC=C(C)CC1` [D-LIMONENE], for which the Activity is 40% in assay [1]; 12.6 /mm3 in [2]; 40% in assay [3]; 29.8 /mm3 in assay [4]; 20% in assay [5]. In addition, the outcome in assay [6], in [8] and in assay [9] was Active. In addition, the “fold change (FC)” value is 5 in [7] and 2 in [10].
